Measurements from patent publication US20250120967A1, “TYROSINE KINASES INHIBITORS AND USES THEREOF” (GREAT NOVEL THERAPEUTICS BIOTECH & MEDICALS CORPORATION, priority 2023, published 2025).

Assays:
Test in all cases: Tyrosine kinase inhibition assay
Assay type in all cases: biochemical
Settings in all cases: single concentration 1.0 μM, read-out: percent inhibition
TXK = molecular target: T1, TXK (Homo sapiens, UniProt P42681)
T1 sequence (P42681 1-527): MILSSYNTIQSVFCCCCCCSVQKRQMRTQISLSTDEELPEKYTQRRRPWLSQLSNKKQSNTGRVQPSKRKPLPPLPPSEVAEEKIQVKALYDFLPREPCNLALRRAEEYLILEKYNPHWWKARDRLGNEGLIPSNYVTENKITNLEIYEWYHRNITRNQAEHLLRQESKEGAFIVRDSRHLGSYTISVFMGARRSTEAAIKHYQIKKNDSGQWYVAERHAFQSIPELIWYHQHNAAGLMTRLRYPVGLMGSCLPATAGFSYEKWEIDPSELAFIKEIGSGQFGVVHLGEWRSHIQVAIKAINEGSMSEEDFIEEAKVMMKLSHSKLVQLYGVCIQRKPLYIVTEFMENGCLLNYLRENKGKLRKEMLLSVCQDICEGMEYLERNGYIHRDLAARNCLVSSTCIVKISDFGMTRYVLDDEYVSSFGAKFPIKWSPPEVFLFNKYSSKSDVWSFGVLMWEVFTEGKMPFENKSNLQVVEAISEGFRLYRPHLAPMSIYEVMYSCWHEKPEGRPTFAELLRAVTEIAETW
Outline: (§1)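 Values are percent inhibition at 1.0 μM compound, with inhibition above 80% defined as a hit. Peptide substrate phosphorylation was assessed by Z′-LYTE at apparent-Km ATP in HEPES pH 7.5 buffer containing MgCl2, EGTA and BRIJ-35.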

ERBB4 (HER4) = ERBB4 (HER4) (Homo sapiens, UniProt Q15303)
ERBB4 (HER4), sequence (Q15303 26-1308): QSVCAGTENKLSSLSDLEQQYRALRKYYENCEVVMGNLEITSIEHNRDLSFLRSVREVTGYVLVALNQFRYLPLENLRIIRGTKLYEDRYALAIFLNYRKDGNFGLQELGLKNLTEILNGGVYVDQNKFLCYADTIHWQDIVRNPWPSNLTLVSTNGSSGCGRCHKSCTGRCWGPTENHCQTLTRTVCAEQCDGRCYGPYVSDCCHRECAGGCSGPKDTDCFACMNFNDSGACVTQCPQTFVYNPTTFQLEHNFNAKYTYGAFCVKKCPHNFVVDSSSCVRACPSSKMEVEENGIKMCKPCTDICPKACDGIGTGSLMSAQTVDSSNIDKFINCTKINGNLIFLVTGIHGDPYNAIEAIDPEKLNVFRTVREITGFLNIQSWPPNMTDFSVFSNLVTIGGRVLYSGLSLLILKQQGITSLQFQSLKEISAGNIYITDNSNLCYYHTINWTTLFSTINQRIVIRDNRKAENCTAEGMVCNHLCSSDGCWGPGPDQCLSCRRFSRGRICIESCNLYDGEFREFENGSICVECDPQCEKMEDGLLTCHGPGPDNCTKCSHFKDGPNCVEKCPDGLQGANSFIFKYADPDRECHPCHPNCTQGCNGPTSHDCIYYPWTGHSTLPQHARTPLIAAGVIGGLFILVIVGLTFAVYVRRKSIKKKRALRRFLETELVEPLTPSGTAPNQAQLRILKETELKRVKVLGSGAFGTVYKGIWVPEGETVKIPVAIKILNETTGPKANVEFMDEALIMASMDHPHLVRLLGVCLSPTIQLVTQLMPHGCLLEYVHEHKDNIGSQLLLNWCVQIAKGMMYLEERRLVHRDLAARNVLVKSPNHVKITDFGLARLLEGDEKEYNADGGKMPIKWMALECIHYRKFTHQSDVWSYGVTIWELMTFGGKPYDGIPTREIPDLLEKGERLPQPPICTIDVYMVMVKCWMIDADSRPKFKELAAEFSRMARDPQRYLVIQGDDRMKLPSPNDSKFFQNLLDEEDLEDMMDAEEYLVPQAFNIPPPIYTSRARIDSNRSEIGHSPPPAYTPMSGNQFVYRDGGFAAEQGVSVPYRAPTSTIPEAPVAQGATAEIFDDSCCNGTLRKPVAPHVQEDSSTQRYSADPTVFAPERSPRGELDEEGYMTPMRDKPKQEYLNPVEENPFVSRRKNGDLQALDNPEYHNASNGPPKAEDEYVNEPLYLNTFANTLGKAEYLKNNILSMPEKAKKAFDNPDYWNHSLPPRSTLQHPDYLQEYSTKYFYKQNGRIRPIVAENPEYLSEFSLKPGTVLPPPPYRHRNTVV
Outline: as §1

EPHB4 = molecular target: T2, EPHB4 (Homo sapiens, UniProt P54760)
T2 sequence (P54760 16-987): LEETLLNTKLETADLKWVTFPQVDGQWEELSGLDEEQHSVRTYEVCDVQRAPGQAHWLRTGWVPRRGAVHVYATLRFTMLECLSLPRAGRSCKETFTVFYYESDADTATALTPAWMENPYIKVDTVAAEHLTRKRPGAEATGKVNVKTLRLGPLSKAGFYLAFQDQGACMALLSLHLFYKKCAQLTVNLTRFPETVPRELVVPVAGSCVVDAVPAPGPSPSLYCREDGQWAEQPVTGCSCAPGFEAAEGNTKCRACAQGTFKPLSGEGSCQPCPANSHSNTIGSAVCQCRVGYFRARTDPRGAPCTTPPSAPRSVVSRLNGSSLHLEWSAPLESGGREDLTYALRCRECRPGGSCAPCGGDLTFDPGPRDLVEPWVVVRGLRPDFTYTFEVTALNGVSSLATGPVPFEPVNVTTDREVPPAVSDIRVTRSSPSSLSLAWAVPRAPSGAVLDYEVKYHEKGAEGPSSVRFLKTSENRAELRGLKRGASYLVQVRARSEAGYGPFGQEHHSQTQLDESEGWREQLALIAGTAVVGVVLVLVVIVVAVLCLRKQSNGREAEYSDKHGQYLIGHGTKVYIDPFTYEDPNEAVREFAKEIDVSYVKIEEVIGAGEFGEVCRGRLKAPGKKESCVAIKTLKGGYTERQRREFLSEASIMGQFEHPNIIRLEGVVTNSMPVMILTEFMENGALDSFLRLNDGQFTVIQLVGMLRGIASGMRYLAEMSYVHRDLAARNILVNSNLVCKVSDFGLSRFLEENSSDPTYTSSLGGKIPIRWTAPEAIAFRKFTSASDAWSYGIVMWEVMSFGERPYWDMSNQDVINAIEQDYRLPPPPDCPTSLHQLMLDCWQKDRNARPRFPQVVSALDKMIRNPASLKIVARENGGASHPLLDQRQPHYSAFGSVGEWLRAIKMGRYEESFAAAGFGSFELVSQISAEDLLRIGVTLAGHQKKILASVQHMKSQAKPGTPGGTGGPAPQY
Outline: as §1

EPHA6 = molecular target: T3, EPHA6 (Homo sapiens, UniProt Q9UF33)
T3 sequence (Q9UF33 23-1036): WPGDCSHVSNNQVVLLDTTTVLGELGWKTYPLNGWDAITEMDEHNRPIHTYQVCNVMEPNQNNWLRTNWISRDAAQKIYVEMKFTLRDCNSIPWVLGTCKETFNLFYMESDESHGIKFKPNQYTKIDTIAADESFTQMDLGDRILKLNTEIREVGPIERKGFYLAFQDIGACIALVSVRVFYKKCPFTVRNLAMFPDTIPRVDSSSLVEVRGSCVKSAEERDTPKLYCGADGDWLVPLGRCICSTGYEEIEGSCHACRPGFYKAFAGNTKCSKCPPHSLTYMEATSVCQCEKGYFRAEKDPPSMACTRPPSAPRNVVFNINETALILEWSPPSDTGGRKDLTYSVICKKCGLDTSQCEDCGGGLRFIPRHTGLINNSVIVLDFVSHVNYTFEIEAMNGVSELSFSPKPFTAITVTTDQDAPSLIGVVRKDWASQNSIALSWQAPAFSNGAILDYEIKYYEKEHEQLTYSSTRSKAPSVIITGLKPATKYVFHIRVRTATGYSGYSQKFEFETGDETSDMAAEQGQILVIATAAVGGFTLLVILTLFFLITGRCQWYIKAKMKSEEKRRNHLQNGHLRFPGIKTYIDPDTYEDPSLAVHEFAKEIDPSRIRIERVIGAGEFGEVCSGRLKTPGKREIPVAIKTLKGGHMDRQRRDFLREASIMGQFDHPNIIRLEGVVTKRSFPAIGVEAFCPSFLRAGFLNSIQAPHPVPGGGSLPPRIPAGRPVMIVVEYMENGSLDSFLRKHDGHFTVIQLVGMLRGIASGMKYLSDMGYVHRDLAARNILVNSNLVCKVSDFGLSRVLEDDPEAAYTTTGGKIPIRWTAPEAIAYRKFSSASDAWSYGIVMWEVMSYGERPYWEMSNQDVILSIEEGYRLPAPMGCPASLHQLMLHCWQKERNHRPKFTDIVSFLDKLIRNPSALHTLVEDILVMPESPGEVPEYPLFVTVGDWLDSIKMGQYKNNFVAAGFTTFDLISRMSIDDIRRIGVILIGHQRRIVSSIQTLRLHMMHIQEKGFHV
Outline: as §1

Row | Structure (SMILES) | inhibition at 1 µM (TXK) [%] | inhibition at 1 µM (ERBB4 (HER4)) [%] | inhibition at 1 µM (EPHB4) [%] | inhibition at 1 µM (EPHA6) [%]
1 | COc1cc2nccc(Oc3ccc(NC(=O)C4(C(=O)Nc5ccc(F)cc5)CC4)cc3)c2cc1OC [Cabozantinib, reference compound] | 17 | 35 | 93 | 103
2 | COc1cc2nccc(Oc3ccc(NC(=O)C4(NC(=O)c5ccc(F)cc5)CC4)cc3F)c2cc1OC [Cbo-02, N-(1-((4-((6,7-diMethoxyquinolin-4-yl)oxy)-3-fluorophenyl)carbamoyl)cyclopropyl)-4-fluorobenzamide] | 14 | 31 | 27 | 75
3 | COc1cc2nccc(Oc3ccc(NC(=O)C4(NC(=O)c5ccc(F)cc5)CC4)cc3F)c2cc1Oc1ccc(N)cc1F [Cbo-10] | 55 | 94 | 50 | 94
4 | COc1cc2nccc(Oc3ccc(NC(=O)C4(NC(=O)c5ccc(F)cc5)CC4)cc3F)c2cc1Oc1c(F)cc(N)cc1F [Cbo-14] | 52 | 93 | 76 | 96
5 | COc1cc2nccc(Oc3ccc(NC(=O)C4(C(=O)Nc5ccc(F)cc5)CC4)cc3F)c2cc1Oc1ccc(N)cc1F [Cbo-23] | 32 | 72 | 103 | 100
